Here are results for 25 compounds from patent US7884117B2, “Carbonylamino pyrrolopyrazoles, potent kinase inhibitors” (Pfizer Inc., priority 2005, dated 2011).

In experiment [1] the target is T1, PAK4 kinase activity in whole cells (TR-293-KDG, modified HEK 293) (Homo sapiens, UniProt O96013).
T1 construct: engineered to overexpress both GEF-H1b and the kinase domain (KD) of PAK4; expressed in transfected cells; host or cells: TR-293-KDG (modified HEK 293, Trex system, Invitrogen)
In words: PAK4 cellular assay: sandwich ELISA of PAK4-dependent phosphorylation of GEF-H1b in TR-293-KDG cells. To be noted: 3-hour exposure. Type of experiment: cell-based.

For experiment [2], the target named is T2, PAK4 Kinase domain (PAK4 KD) (Homo sapiens, UniProt O96013).
T2 construct: Cloning, expression, and purification of recombinant PAK4 Kinase domain (PAK4 KD); His tag (pET28a(+)/pET24a(+), Ni-NTA purification) (N, cleaved yes); GST (pGST4.5, glutathione column) (N, cleaved yes); made in house; host or cells: E. coli BL21(DE3)
Nature of the experiment: PAK4 kinase domain enzymatic assay (PK/LDH-coupled, Ki). It is filed as biochemical. To be noted: PAK4 Kinase Domain.

T2 sequence (O96013 321-572 limits assumed): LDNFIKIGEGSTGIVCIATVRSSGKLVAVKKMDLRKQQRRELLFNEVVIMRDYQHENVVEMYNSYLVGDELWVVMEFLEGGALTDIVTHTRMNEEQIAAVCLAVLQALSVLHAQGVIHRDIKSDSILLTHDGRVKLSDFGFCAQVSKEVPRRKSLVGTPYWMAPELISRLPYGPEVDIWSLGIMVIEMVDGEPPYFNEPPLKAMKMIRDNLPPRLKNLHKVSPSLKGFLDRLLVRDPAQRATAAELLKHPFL
T1 sequence (O96013 321-572 limits assumed): as above

`CN(C)CC(CC(=O)N1Cc2c(NC(=O)c3cccs3)n[nH]c2C1(C)C)c1ccc(Cl)cc1` (centres unmarked) [Example 97, N-{5-[3-(4-chlorophenyl)-4-(dimethylamino)butanoyl]-6,6-dimethyl-1,4,5,6-tetrahydropyrrolo[3,4-c]pyrazol-3-yl}thiophene-2-carboxamide] returned an EC50 in experiment [1] of 1510 nM. In experiment [2], this compound displayed a Ki of 110 nM.
In experiment [1], `CN(C)C[C@@H](OC(=O)N1Cc2c(NC(=O)c3cn(C)cn3)n[nH]c2C1(C)C)c1ccccc1` [Example 69, (1S)-2-(dimethylamino)-1-phenylethyl 6,6-dimethyl-3-{[(1-methyl-1H-imidazol-4-yl)carbonyl]amino}-4,6-dihydropyrrolo[3,4-c]pyrazole-5(1H)-carboxylate] had a concentration for a half-maximal effect (EC50) of 226 nM. In experiment [2], this compound returned a Ki of 149 nM.
In the same order, the values of `CN(C)C[C@@H](NC(=O)N1Cc2c(NC(=O)c3cccs3)n[nH]c2C1(C)C)c1ccccc1` [Example 57, N-[(1S)-2-(dimethylamino)-1-phenylethyl]-6,6-dimethyl-3-[(2-thienylcarbonyl)amino]-4,6-dihydropyrrolo[3,4-c]pyrazole-5(1H)-carboxamide] are 16 nM and 11.3 nM.
The matching figures for `CC1(C)c2[nH]nc(NC(=O)c3cccs3)c2CN1C(=O)N[C@H]1C[C@@H]1c1ccccc1` (relative stereo) [Example 98, 6,6-dimethyl-N-[trans-2-phenylcyclopropyl]-3-[(2-thienylcarbonyl)amino]-4,6-dihydropyrrolo[3,4-c]pyrazole-5(1H)-carboxamide]: 1080 nM and 19.5 nM.
In experiment [1], `CN(C)C[C@@H](OC(=O)N1Cc2c(NC(=O)[C@@H]3C[C@H]3c3ccccc3)n[nH]c2C1(C)C)c1ccccc1` [Example 20, (1S)-2-(dimethylamino)-1-phenylethyl 6,6-dimethyl-3-({[trans-2-phenylcyclopropyl]carbonyl}amino)-4,6-dihydropyrrolo[3,4-c]pyrazole-5(1H)-carboxylate] came in with a 50% effective concentration (EC50) of 80.2 nM. This compound registered a Ki in experiment [2] of 8.13 nM.
In the same order, the values of `CN(C)C[C@@H](NC(=O)N1Cc2c(NC(=O)c3cccc(Oc4ccccc4)c3)n[nH]c2C1(C)C)c1ccccc1` [Example 96, N-[(1S)-2-(dimethylamino)-1-phenylethyl]-6,6-dimethyl-3-[(3-phenoxybenzoyl)amino]-4,6-dihydropyrrolo[3,4-c]pyrazole-5(1H)-carboxamide] are 59 nM and 12.5 nM.
As to `CC(=O)Nc1n[nH]c2c1CN(C(=O)O[C@H](CN(C)C)c1ccccc1)C2(C)C` [Example 7, (1S)-2-(dimethylamino)-1-phenylethyl 3-(acetylamino)-6,6-dimethyl-4,6-dihydropyrrolo[3,4-c]pyrazole-5(1H)-carboxylate], the concentration giving a half-maximal response (EC50) in experiment [1] came to 230 nM. In experiment [2], this compound gave an inhibition constant Ki of 314 nM.
`CN(C)C[C@@H](NC(=O)N1Cc2c(NC(=O)c3ccccc3F)n[nH]c2C1(C)C)c1ccccc1` [Example 48, N-[(1S)-2-(dimethylamino)-1-phenylethyl]-3-[(2-fluorobenzoyl)amino]-6,6-dimethyl-4,6-dihydropyrrolo[3,4-c]pyrazole-5(1H)-carboxamide] displayed an EC50 in experiment [1] of 36.4 nM. Also, the Ki in experiment [2] came to 98.3 nM.
The matching figures for `CN(C)CC(OC(=O)N1Cc2c(n[nH]c2NC(=O)C2CCCO2)C1(C)C)c1cccc(F)c1` (single isomer, unassigned) [Example 84A]: 16 nM and 70 nM.
In the same order, the values of `COC(C)(C)C(=O)Nc1n[nH]c2c1CN(C(=O)O[C@H](CN(C)C)c1ccccc1)C2(C)C` [Example 116, (S)-2-(dimethylamino)-1-phenylethyl 3-(2-methoxy-2-methylpropanamido)-6,6-dimethylpyrrolo[3,4-c]pyrazole-5(1H,4H, 6H)-carboxylate] are 50 nM and 212 nM.
The matching figures for `CC1(C)c2[nH]nc(NC(=O)[C@@H]3C[C@H]3c3ccccc3)c2CN1C(=O)N[C@@H]1C[C@H]1c1ccccc1` (relative stereo) [Example 108, 6,6-dimethyl-N-[trans-2-phenylcyclopropyl]-3-({[trans-2-phenylcyclopropyl]-carbonyl}amino)-4,6-dihydropyrrolo[3,4-c]pyrazole-5(1H)-carboxamide]: 1150 nM and 70 nM.
`CC(C)C(=O)Nc1n[nH]c2c1CN(C(=O)O[C@H](CN(C)C)c1ccccc1)C2(C)C` [Example 8, (1S)-2-(dimethylamino)-1-phenylethyl 3-(isobutyrylamino)-6,6-dimethyl-4,6-dihydropyrrolo[3,4-c]pyrazole-5(1H)-carboxylate] registered a concentration giving a half-maximal response (EC50) in experiment [1] of 7.4 nM. The compound further displayed a Ki in experiment [2] of 124 nM.
In the case of `CN(C)C[C@@H](OC(=O)N1Cc2c(NC(=O)C3CC3)n[nH]c2C1(C)C)c1ccccc1` [Example 9, (1S)-2-(dimethylamino)-1-phenylethyl 3-[(cyclopropylcarbonyl)amino]-6,6-dimethyl-4,6-dihydropyrrolo[3,4-c]pyrazole-5(1H)-carboxylate], in experiment [1], the EC50 is 13.3 nM. Further, the affinity in experiment [2] corresponds to a Ki of 96.4 nM.
The matching figures for `CN(C)C[C@@H](NC(=O)N1Cc2c(n[nH]c2NC(=O)c2nccs2)C1(C)C)c1ccccc1` [Example 71, N-[(1S)-2-(dimethylamino)-1-phenylethyl]-6,6-dimethyl-3-[(1,3-thiazol-2-ylcarbonyl)amino]-4,6-dihydropyrrolo[3,4-c]pyrazole-5(1H)-carboxamide]: 84.1 nM and 101 nM.
The matching figures for `CN(C)C[C@@H](OC(=O)N1Cc2c(NC(=O)[C@@H]3CCCO3)n[nH]c2C1(C)C)c1ccccc1` [Example 92, (S)-2-(dimethylamino)-1-phenylethyl 6,6-dimethyl-3-((S)-tetrahydrofuran-2-carboxamido)pyrrolo[3,4-c]pyrazole-5(1H,4H,6H)-carboxylate]: 103 nM and 345 nM.
The matching figures for `CN(C)CC(OC(=O)N1Cc2c(n[nH]c2NC(=O)C2CCCO2)C1(C)C)c1cccc(F)c1` (single isomer, unassigned) [Example 83B]: 5 nM and 36.2 nM.
In turn, `CN(C)C[C@@H](OC(=O)N1Cc2c(NC(=O)C3CN(C)CCO3)n[nH]c2C1(C)C)c1ccccc1` (stereo partly drawn) [Example 17, (1S)-2-(dimethylamino)-1-phenylethyl 6,6-dimethyl-3-{[(4-methylmorpholin-2-yl)carbonyl]amino}-4,6-dihydropyrrolo[3,4-c]pyrazole-5(1H)-carboxylate] registered an EC50 in experiment [1] of 110 nM. Moreover, the inhibition constant Ki in experiment [2] came to 259 nM.
Turning to `CN(C)C[C@@H](OC(=O)N1Cc2c(NC(=O)c3ccc(F)cc3F)n[nH]c2C1(C)C)C1CCCCC1` [Example 34, (1S)-1-cyclohexyl-2-(dimethylamino)ethyl 3-[(2,4-difluorobenzoyl)amino]-6,6-dimethyl-4,6-dihydropyrrolo[3,4-c]pyrazole-5(1H)-carboxylate], a half-maximal response in experiment [1] (EC50) required 60 nM. For the same compound, the affinity in experiment [2], expressed as Ki, was 510 nM.
In the same order, the values of `CN(C)C[C@@H](NC(=O)N1Cc2c(NC(=O)c3nc4ccccc4s3)n[nH]c2C1(C)C)c1ccccc1` [Example 104, (S)-N-(5-((2-(dimethylamino)-1-phenylethyl)carbamoyl)-6,6-dimethyl-1,4,5,6-tetrahydropyrrolo[3,4-c]pyrazol-3-yl)benzo[d]thiazole-2-carboxamide] are 9 nM and 89 nM.
In the same order, the values of `CN(C)C[C@@H](OC(=O)N1Cc2c(NC(=O)c3ccccc3F)n[nH]c2C1(C)C)c1ccccc1` [Example 3, (1S)-2-(dimethylamino)-1-phenylethyl 3-[(2-fluorobenzoyl)amino]-6,6-dimethyl-4,6-dihydropyrrolo[3,4-c]pyrazole-5(1H)-carboxylate] are 50 nM and 42.1 nM.
In the same order, the values of `CN(C)C[C@@H](OC(=O)N1Cc2c(NC(=O)C(C)(C)C)n[nH]c2C1(C)C)c1ccccc1` [Example 10, (1S)-2-(dimethylamino)-1-phenylethyl 3-[(2,2-dimethylpropanoyl)amino]-6,6-dimethyl-4,6-dihydropyrrolo[3,4-c]pyrazole-5(1H)-carboxylate] are 7.2 nM and 75 nM.
For `CN(C)CC(OC(=O)N1Cc2c(NC(=O)c3ccc(F)cc3)n[nH]c2C1(C)C)c1ccccc1` (centres unmarked) [Example 22], in experiment [1], the midpoint of the response, the EC50, lay at 14.8 nM. In experiment [2], this compound yielded a Ki of 17.4 nM.
`CN(C)CC(OC(=O)N1Cc2c(NC(=O)c3ccc(F)cc3)n[nH]c2C1(C)C)c1ccc(C#N)cc1` (centres unmarked) [Example 95, 1-(4-cyanophenyl)-2-(dimethylamino)ethyl 3-(4-fluorobenzamido)-6,6-dimethylpyrrolo[3,4-c] pyrazole-5(1H,4H,6H)-carboxylate] returned an EC50 in experiment [1] of 127 nM. The affinity in experiment [2] corresponds to a Ki of 137 nM.
In the same order, the values of `CC(C)C[C@@H](CN(C)C)OC(=O)N1Cc2c(NC(=O)c3ccc(F)cc3)n[nH]c2C1(C)C` [Example 36, (1S)-1-[(dimethylamino)methyl]-3-methylbutyl 3-[(4-fluorobenzoyl)amino]-6,6-dimethyl-4,6-dihydropyrrolo[3,4-c]pyrazole-5(H)-carboxylate] are 315 nM and 103 nM.
The matching figures for `CN(C)CC(OC(=O)N1Cc2c(NC(=O)c3ccc(F)cc3)n[nH]c2C1(C)C)c1ccc(F)cc1` (centres unmarked) [Example 39, 2-(dimethylamino)-1-(4-fluorophenyl)ethyl 3-[(4-fluorobenzoyl)amino]-6,6-dimethyl-4,6-dihydropyrrolo[3,4-c]pyrazole-5(1H)-carboxylate]: 15.3 nM and 47.5 nM.

What is called EC50 is the concentration that produces a half-maximal response. For orientation: Ki means the dissociation constant of the complex between target and ligand, obtained from inhibition or displacement.
